Measured values published in patent EP0741188A2, “Single chain insulin with high bioactivity” (ELI LILLY AND COMPANY, priority 1995, dated 1996).

Tests used:
[1] = test system: IGF-1 receptor; assay: IGF-1 assay: displacement of [125I] ligand from human placental membranes; format: binding; conditions: relative to IGF-1 = 100, human placental membrane protein, 24 hours at 4°C, from EC50 values of displacement curves
Experimental: (§1) Measurements of insulin and IGF-1 activities were accomplished in substantial accordance with the teaching of Gruppuso, et al. (1988) J. of Clin. Endocrin. and Metab. 67:194-197. Briefly, 30-50 µg of human placental membrane protein was incubated with approximately 10 femtomoles of [^125I] ligand in a final volume of 500 µl of 100 mM HEPES, pH 7.8, 120mM NaCl, 5mM KCl, 1.2mM MgSO4, 8mM glucose and 0.25% BSA for 24 hours at 4°C. Membranes were collected on glass fiber filters pre-treated with 0.1% polyethyleneimine by using a cell harvester (Skatron, Lier, Norway). Binding data were analyzed by fitting displacement curves to a four parameter model employing Prefit/Allfit® software for the determination of EC50 values.

[2] = test system: insulin receptor; assay: Insulin assay: displacement of [125I] ligand from human placental membranes; format: binding; conditions: relative to human insulin = 100, human placental membrane protein, 24 hours at 4°C, from EC50 values of displacement curves
Experimental: as §1

%IGF-1 Activity [1]: 23%
%Insulin Activity [2]: 34%
Substance: bCa: single-chain human insulin B-chain and A-chain joined by Bridging Peptide GLY-TYR-GLY-SER-SER-SER-ARG-ARG-ALA-PRO-GLN-THR; made by solid-phase synthesis
